Measurements as given in ChEMBL document CHEMBL1157770, “Functionalized pyrazoles and pyrazolo[3,4-d]pyridazinones: Synthesis and evaluation of their phosphodiesterase 4 inhibitory activity” (Bioorg Med Chem, 2010).

Experiments:
Phosphodiesterase 4 [1] = target: T1, Phosphodiesterase 4 (Homo sapiens, UniProt P27815+Q08499+Q07343+Q08493); assay: Inhibition of PDE4 in human U937 cells after 30 mins by electrochemiluminescence based immunoassay; type: cell-based; conditions: u-937
PBMC = assay: Antiinflammatory activity in human PBMC assessed as inhibition of LPS-induced TNFalpha production; type: functional, cell-based
Phosphodiesterase 4 [2] = target: T1, Phosphodiesterase 4; assay: Inhibition of PDE4 in human U937 cells at 1 uM after 30 mins by electrochemiluminescence based immunoassay; type: cell-based; conditions: U-937
Phosphodiesterase 4 [3] = target: T1, Phosphodiesterase 4; assay: Inhibition of PDE4 in human U937 cells at 10 uM after 30 mins by electrochemiluminescence based immunoassay; type: cell-based; conditions: U-937

SMILES | IC50 (Phosphodiesterase 4 [1]) | inhibition (Phosphodiesterase 4 [2]) | further results
CCOC(=O)c1nn(CC)c(=O)c2nn(-c3ccccc3Cl)c(C)c12 | 32 nM |  | 
CCOC(=O)c1nn(CC)c(=O)c2nn(-c3cccc([N+](=O)[O-])c3)c(C)c12 | 75 nM |  | IC50 (PBMC): 383 nM
CCOC(=O)c1nn(CC)c(=O)c2nn(Cc3ccc([N+](=O)[O-])cc3)c(C)c12 | 1140 nM |  | 
CCn1nc(-c2nnc(C)o2)c2c(C)n(-c3cccc([N+](=O)[O-])c3)nc2c1=O |  | 48% | 
COCc1nn(CC2CC2)c(=O)c2nn(-c3ccccc3Cl)cc12 |  | 19% | 
CCOC(=O)CCn1nc(-c2ccccc2)c2c(C)n(-c3cccc([N+](=O)[O-])c3)nc2c1=O |  | 1% | 
CCn1nc(COC)c2c(C)n(-c3ccccc3Cl)nc2c1=O |  | 41% | 
CCOC(=O)CCn1nc(C)c2c(C)n(-c3cccc([N+](=O)[O-])c3)nc2c1=O |  | 4% | 
Cc1nn(C)c(CCc2ccccc2)c1C#N |  | 2.1% | 
CCOC(=O)c1nn(CC)c(=O)c2nn(-c3cc(C(=O)OC)ccc3C)c(C)c12 | 876 nM |  | 
CCN(C)C(=O)c1nn(CC)c(=O)c2nn(-c3cccc([N+](=O)[O-])c3)c(C)c12 |  | -2% | 
CCOC(=O)c1nn(CC2CC2)c(=O)c2nn(-c3ccccc3Cl)c(C)c12 | 374 nM |  | 
CCn1nc(C(=O)NC)c2c(C)n(-c3cccc([N+](=O)[O-])c3)nc2c1=O |  | 14% | 
CCOC(=O)Cn1nc(-c2ccccc2)c2c(C)n(-c3cccc([N+](=O)[O-])c3)nc2c1=O |  | 1% | 
CCn1nc(-c2ccccc2)c(C#N)c1/C=C/c1cccc2ccccc12 |  | 35% | 
CCn1nc(-c2ccccc2)c2c(C)n(-c3cccc([N+](=O)[O-])c3)nc2c1=O |  | 47% | 
Cc1nn(C)c(/C=C/c2ccccc2)c1C#N |  | 1.3% | 
CCn1nc(-c2ccncc2)c(C#N)c1CCc1cccc2ccccc12 |  | 2.8% | 
CCOC(=O)c1nn(CC)c(=O)c2nn(Cc3ccc(C#N)cc3)c(C)c12 |  |  | inhibition (Phosphodiesterase 4 [3]): 5%
CCn1nc(C(=O)N(C)C)c2c(C)n(-c3cccc([N+](=O)[O-])c3)nc2c1=O |  | 4% | 
CCOC(=O)c1nn(CC)c(=O)c2nn(-c3c(Cl)cccc3Cl)c(C)c12 | 237 nM |  | 
CCn1nc(C)c2c(C)n(-c3cccc([N+](=O)[O-])c3)nc2c1=O | 385 nM |  | 

SMILES | IC50 (Phosphodiesterase 4 [1]) | inhibition (Phosphodiesterase 4 [2]) | further results
CCn1nc(-c2ccncc2)c(C#N)c1/C=C/c1cccc2ccccc12 |  | 19% | 
CCOC(=O)Cn1nc(C)c2c(C)n(-c3cccc([N+](=O)[O-])c3)nc2c1=O |  | 64.1% | 
CCCn1nc(C(=O)OCC)c2c(C)n(-c3cccc([N+](=O)[O-])c3)nc2c1=O | 72 nM |  | 
CCn1nc(C#N)c2c(C)n(-c3ccccc3Cl)nc2c1=O |  | -2% | 
CCn1nc(-c2ccccc2)c(C#N)c1/C=C/c1ccccc1C(=O)O |  | 6% | 
CCn1nc(-c2ccccc2)c(C#N)c1CCc1ccccc1C(=O)O |  | 11% | 
CCn1nc(C(=O)OC)c2c(C)n(-c3cccc([N+](=O)[O-])c3)nc2c1=O | 46 nM |  | 
CCn1nc(CO)c2c(C)n(-c3ccccc3Cl)nc2c1=O |  | -4% | 
CCn1nc(C(=O)Nc2c(Cl)cncc2Cl)c2c(C)n(-c3ccccc3)nc2c1=O |  | 3% | 
COc1ccc(CCc2c(C#N)c(-c3ccccc3)nn2C)cc1OC |  | 14% | 
CCOC(=O)c1nn(CC)c(=O)c2nn(-c3ccccc3)c(C)c12 | 300 nM |  | 
CCOC(=O)c1nn(CC)c(=O)c2nn(-c3cc(C(N)=O)ccc3Cl)c(C)c12 | 757 nM |  | 
CCOC(=O)c1nn(CC)c(=O)c2nn(-c3cccc(CO)c3)c(C)c12 |  | 39% | 
CCOC(=O)c1nn(CC)c(=O)c2nn(-c3ccccc3C)c(C)c12 | 59 nM |  | IC50 (PBMC): 127 nM
CCn1nc(COC)c2cn(-c3ccccc3Cl)nc2c1=O |  | 65% | 
CCOC(=O)c1nn(CC)c(=O)c2nn(Cc3ccc(C(=O)OC)cc3)c(C)c12 | 1200 nM |  | 
CCn1nc(C(=O)O)c2c(C)n(-c3cccc([N+](=O)[O-])c3)nc2c1=O |  | 2% | 
CCn1nc(-c2ccccc2)c(C#N)c1CCc1cccc2ccccc12 |  | -3% | 
CCCOC(=O)c1nn(CC)c(=O)c2nn(-c3cccc([N+](=O)[O-])c3)c(C)c12 |  | 14% | 
CCn1nc(C(=O)OC(C)C)c2c(C)n(-c3cccc([N+](=O)[O-])c3)nc2c1=O |  | 6% | 
CCn1nc(C#N)c2c(C)n(-c3c(Cl)cccc3Cl)nc2c1=O |  | 2% | 
